Tests used:
[1] = system: Otsuka Long-Evans Tokushima Fatty (OLETF) male rats; assay: Urinary excretion of glucose and insulin resistance in OLETF rats on high-fat diet; assay type: in vivo; conditions: eleventh week; for urinary glucose, mean±SD: 0.3% Cilostazol and/or 0.5% Probucol in diet, control 186±171 mg/dl; for effect on plasma glucose: 0.3% Cilostazol or 0.5% Probucol in diet, control 162±16 mg/dl
Description: Otsuka Long-Evans Tokushima Fatty (OLETF) male rats (6 week olds) were divided randomly into the following four groups depending on the body weights by stratified randomized method (using SAS Software, R8.1): Immediately after the randomized grouping, high-fat diet (commercially available feed (CRF-1, manufactured by Oriental Yeast Industries Co., LTD.) supplemented with cholesterol (1.25%), sodium cholate (0.5%) and cacao butter (15%)) was administered to the mice in each group in order to promote the onset of renal disease. In the test-material administered groups, the high-fat diet combined with the test material was administered to each mouse immediately after grouping. In the eleventh week after initiation of feeding, the mice were bled from the tail vein without anesthetization, and the plasma glucose and insulin level in plasma were measured. Separately, the urine was taken, and the urinary glucose was measured. Glucose was measured by an enzymatic method using a commercially available kit for measuring glucose, and the insulin was measured by a commercially available ELISA kit. 1) In order to confirm the synergistic effects of the combination of Cilostazol and Probucol, two-way ANOVA was carried out between the control group and the Cilostazol-administered group as well as between the Probucol-administered group and two agents-administered group, and thereby the interaction was observed. 2) The effects in Cilostazol- and Probucol-administered group were compared with the effects in control group by Dunnett's test. Moreover, the effects in Cilostazol- and Probucol-administered group were compared with the effects in Cilostazol+Probucol-administered group by Dunnett's test. All tests were done by two-sided test with significant level of 5%, by means of SAS Software (SAS Institute Japan, R8.1). The data were shown by mean±SD (n).

[2] = system: focal cerebral ischemic injury in rats; assay: Focal cerebral ischemic injury in rats (transient MCA occlusion, TTC-stained infarct); assay type: in vivo, Sprague-Dawley rats; conditions: 2-h MCA occlusion/22-h reperfusion, oral, two times at 5 min and 4 h, cilostazol 20 mg/kg, probucol 30 mg/kg, vs vehicle, FIG. 4
Description: Male Sprague-Dawley rats weighing 280-320 g were anesthetized with pentobarbital sodium (20 mg/kg, i.p.), and placed on a heating pad (Homeothermic Blanket System, Harvard Apparatus, South Natick, Mass.) to maintain a constant rectal temperature (37±0.5° C.). Systemic arterial blood pressure, arterial blood gas and pH were measured before, during ischemia and after 22-h reperfusion. Focal cerebral ischemia was induced by transient occlusion of the left middle cerebral artery (MCA) as previously described (Stroke 1989; 20:84-91). Surgical nylon suture thread (3-0 in size) with the round tip was advanced from the external carotid artery into the lumen of the internal carotid artery until blocking the flow of the MCA. Two hours after MCA occlusion, reperfusion was allowed by withdrawal of the suture thread until the tip cleared the internal carotid artery. […] The TTC-stained brain slices were photographed using CCD video camera and the size of an infarct was calculated with image analysis system (Image-Pro Plus, Media Cybernetics, Maryland) and expressed as the percentage of infarcted tissue in reference to the ipsilateral hemisphere. […] Data were expressed as mean±S.E.M. The comparison of the results of hemispheric infarct areas between groups is analyzed by repeated measures analysis of variance followed by Tukey's multiple comparison tests as a post hoc comparison. […]

[3] = system: atherosclerotic lesion in low-density lipoprotein receptor-knockout mice; assay: Atherosclerosis in low-density lipoprotein receptor-knockout mice fed high cholesterol; assay type: in vivo; conditions: LDLR-KO mice; for area of atherosclerotic lesion (ratio of Sudan IV stained area to whole aorta), mean±SD: high-fat diet 8 weeks, control 10.1±4.7%; for inhibition of atherosclerotic lesion (in words): Cilostazol 0.3%, Probucol 0.1 and 0.5%, alone or combined, FIG. 2 and FIG. 3
Description: Low-density lipoprotein receptor-knockout (LDLR-KO) mice (J. Clin. Invest. 1993; 92: 883-893) (male, 9 weeks old, which was prepared by and kept in Otsuka Pharmaceutical Co, Ltd.) were used. The animals were treated by grouping in the following six groups. Prior to start the experiment, the body weight of the animals and total cholesterol were measured, and based on both data, the animals were divided into six groups in random by stratified randomization method (SAS Software, R8.1). The doses of Probucol and Cilostazol were determined based on the reports (Horm. Metab. Res. 2001; 33: 472-479, and J. Pharmacol. Exp. Ther. 2005; 313: 502-509), respectively. In control group, mice were administered with a high-fat diet [i.e. a conventional feed (CRF-1, manufactured by Oriental Yeast Industries Co., LTD.) supplemented with cholesterol (1.25%), sodium cholate (0.5%) and cacao butter (15%)] and in the test material-administered group, the mice were administered with the high-fat diet combined with Cilostazol (0.3%) and/or Probucol (0.1% or 0.5%). The high-fat diet was administered to the LDLR-KO mice (since 9 weeks old) in order to induce atherosclerosis (in control group). In the test material-administration groups, the high-fat diet mixed with test material was administered to the mice (since 9 weeks old). The mice in both groups were dissected at eighth weeks after starting the administration of the diet. The atherosclerotic lesion was evaluated by picking up whole of the aorta under ether anesthesia, exposing the inner face of aorta and staining the fats with Sudan IV. The area of the atherosclerotic lesion (containing fats/lipids) in whole of the aorta was counted by image analysis of stained area and whole area of the aorta. 1) In order to confirm the synergistic effects of the combination of Cilostazol and Probucol, two-way ANOVA was carried out between the control group and the Cilostazol-administered group as well as between the Probucol-administered group and two agents-administered group, and thereby the interaction was observed. 2) The effects in Cilostazol- and Probucol-administered group were compared with the effects in control group by Dunnett's test. Moreover, the effects in Cilostazol- and Probucol-administered group were compared with the effects in Cilostazol+Probucol-administered group by Dunnett's test. All tests were done by two-sided test with significant level of 5%, by means of SAS Software (SAS Institute Japan, R8.1). The area of atherosclerotic lesion was calculated as the ratio (%) of the area stained by Sudan IV to the area of whole aorta. The mean values±standard deviation were 10.1±4.7% in Control group, 6.6±2.6% in Cilostazol-administered group, 6.2±2.6% in 0.1% Probucol-administered group, 4.7±1.2% in 0.5% Probucol-administered group, 3.8±1.2% in Cilostazol+0.1% Probucol-administered group, and 2.9±1.5% in Cilostazol+0.5% Probucol-administered group.

Structure (SMILES): CC(C)(Sc1cc(C(C)(C)C)c(O)c(C(C)(C)C)c1)Sc1cc(C(C)(C)C)c(O)c(C(C)(C)C)c1 [Probucol, 4,4′-isopropylidenedithiobis[2,6-di-tert-butylphenol]]
- urinary glucose, mean±SD [1]: 11 ± 3 mg/dL
- effect on plasma glucose [1]: neither Cilostazol nor Probucol showed any effect
- hemispheric cerebral infarct area (in words) [2]: without effect
- area of atherosclerotic lesion (ratio of Sudan IV stained area to whole aorta), mean±SD ([3]; 0.1% Probucol in diet): 6.2±2.6%
- area of atherosclerotic lesion (ratio of Sudan IV stained area to whole aorta), mean±SD ([3]; 0.5% Probucol in diet): 4.7±1.2%
- inhibition of atherosclerotic lesion (in words) [3]: inhibited the atherosclerotic lesion significantly

Structure (SMILES): O=C1CCc2cc(OCCCCc3nnnn3C3CCCCC3)ccc2N1 [Cilostazol, 6-[4-(1-cyclohexyl-1H-tetrazol-5-yl)butoxy]-3,4-dihydrocarbostyril]
- urinary glucose, mean±SD [1]: 11 ± 2 mg/dL
- effect on plasma glucose [1]: neither Cilostazol nor Probucol showed any effect
- hemispheric cerebral infarct area (in words) [2]: marginally reduced
- area of atherosclerotic lesion (ratio of Sudan IV stained area to whole aorta), mean±SD ([3]; 0.3% Cilostazol in diet): 6.6±2.6%
- inhibition of atherosclerotic lesion (in words) [3]: inhibited the atherosclerotic lesion significantly
